Test results reported in US7872115B2, “Reporter assay screens for protein targets in Saccharomyces cerevisiae” (Schering Corporation, priority 2004, dated 2011).
Values after ≈ are worked out from the molar mass of the structure shown. Where two headings read alike, the source gives them in different places.

Tests used:
[1] = system: yeast Y229-1 (PCDC48 (SEQ ID NO: 53)-PH05-Renlla Luciferase); test: MIC determined visually; assay type: cell-based, Saccharomyces cerevisiae; conditions: minimum inhibitor concentration at which there is an approximately 90% drop in cell number relative to the uninhibited control
[2] = system: yeast Y229-1 (PCDC48 (SEQ ID NO: 53)-PH05-Renlla Luciferase); test: IC90 calculated from Renilla luciferase light output (baseline promoter reporter); assay type: cell-based, Saccharomyces cerevisiae; conditions: 24 hours at 30° C., YPD, 1% DMSO
[3] = Saccharomyces cerevisiae, read-out: MIC
[4] = Saccharomyces cerevisiae, inhibitor concentration at which there is a 90% drop in luciferase signal relative to the uninhibited control, read-out: IC90

Row | Structure (SMILES) | MIC [1, 3] [µg/mL] | IC90 [2, 4] [µg/mL] | MIC [1] [µg/mL] | IC90 ([2]; inhibitor concentration at which there is a 90% drop in luciferase signal relative to the uninhibited control) [µg/mL] | IC90 ([2]; Saccharomyces cerevisiae, […], read-out: IC90) [µg/mL]
1 | Nc1nc(=O)[nH]cc1F [5FC, 5-fluorocytosine] | 2.5 (≈ 19.4 µM) | 1.9 (≈ 14.7 µM) |  |  | 
2 | C[C@@H]1[C@H](O)[C@@H](C)/C=C/C=C/C=C/C=C/C=C/C=C/C=C/[C@H](O[C@@H]2O[C@H](C)[C@@H](O)[C@H](N)[C@@H]2O)C[C@@H]2O[C@](O)(C[C@@H](O)C[C@@H](O)[C@H](O)CC[C@@H](O)C[C@@H](O)CC(=O)O[C@H]1C)C[C@H](O)[C@H]2C(=O)O [AMB, amphotericin B] |  |  | 0.3 (≈ 0.325 µM) | 0.3 (≈ 0.325 µM) | 
3 | CC[C@H](C)C[C@H](C)CCCCCCCCC(=O)N[C@H]1C[C@@H](O)[C@@H](NCCN)NC(=O)[C@@H]2[C@@H](O)CCN2C(=O)[C@H]([C@H](O)CCN)NC(=O)[C@H]([C@H](O)[C@@H](O)c2ccc(O)cc2)NC(=O)[C@@H]2C[C@@H](O)CN2C(=O)[C@H]([C@@H](C)O)NC1=O [CSP, caspofungin] | 0.015 (≈ 0.0137 µM) |  |  |  | 0.02 (≈ 0.0183 µM)
4 | OC(Cn1cncn1)(Cn1cncn1)c1ccc(F)cc1F [FLU, fluconazole] | 0.2 (≈ 0.653 µM) | 0.3 (≈ 0.98 µM) |  |  | 
5 | CN(C/C=C/C#CC(C)(C)C)Cc1cccc2ccccc12 [TRB, terbinafine] | 1.56 (≈ 5.35 µM) | 1.4 (≈ 4.8 µM) |  |  | 
6 | C[C@@H](c1ncncc1F)[C@](O)(Cn1cncn1)c1ccc(F)cc1F [VOR, voriconazole] | 0.015 (≈ 0.0429 µM) | 0.008 (≈ 0.0229 µM) |  |  | 
